The species entered for assay [1] is Homo sapiens. Briefly: Selectivity index, ratio of IC50 for recombinant human MAO-A to IC50 for recombinant human MAO-B.
In assay [2] the target is T1, Amine oxidase [flavin-containing] A (Homo sapiens, UniProt P21397).
T1 sequence (P21397 whole entry): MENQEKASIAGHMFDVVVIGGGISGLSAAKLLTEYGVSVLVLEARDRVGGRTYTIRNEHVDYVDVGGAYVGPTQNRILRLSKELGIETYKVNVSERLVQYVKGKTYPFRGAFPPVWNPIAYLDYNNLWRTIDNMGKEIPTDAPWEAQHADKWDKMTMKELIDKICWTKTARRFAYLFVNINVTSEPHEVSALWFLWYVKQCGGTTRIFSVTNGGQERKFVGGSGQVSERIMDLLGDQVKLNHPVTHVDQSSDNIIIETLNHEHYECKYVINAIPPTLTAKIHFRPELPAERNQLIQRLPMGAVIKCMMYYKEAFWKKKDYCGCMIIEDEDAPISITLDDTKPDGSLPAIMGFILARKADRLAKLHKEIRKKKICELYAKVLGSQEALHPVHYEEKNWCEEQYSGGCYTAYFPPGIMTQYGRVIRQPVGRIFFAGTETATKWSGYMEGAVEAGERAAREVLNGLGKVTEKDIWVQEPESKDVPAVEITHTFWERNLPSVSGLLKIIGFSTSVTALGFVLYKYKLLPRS
Description: Inhibition of human recombinant MAO-A […] as incubated for 20 mins measuring increase in emission signal at 310 nm multimode plate reader assay.

In assay [3] the target is T2, Amine oxidase [flavin-containing] B (Homo sapiens, UniProt P27338).
T2 sequence (P27338 whole entry): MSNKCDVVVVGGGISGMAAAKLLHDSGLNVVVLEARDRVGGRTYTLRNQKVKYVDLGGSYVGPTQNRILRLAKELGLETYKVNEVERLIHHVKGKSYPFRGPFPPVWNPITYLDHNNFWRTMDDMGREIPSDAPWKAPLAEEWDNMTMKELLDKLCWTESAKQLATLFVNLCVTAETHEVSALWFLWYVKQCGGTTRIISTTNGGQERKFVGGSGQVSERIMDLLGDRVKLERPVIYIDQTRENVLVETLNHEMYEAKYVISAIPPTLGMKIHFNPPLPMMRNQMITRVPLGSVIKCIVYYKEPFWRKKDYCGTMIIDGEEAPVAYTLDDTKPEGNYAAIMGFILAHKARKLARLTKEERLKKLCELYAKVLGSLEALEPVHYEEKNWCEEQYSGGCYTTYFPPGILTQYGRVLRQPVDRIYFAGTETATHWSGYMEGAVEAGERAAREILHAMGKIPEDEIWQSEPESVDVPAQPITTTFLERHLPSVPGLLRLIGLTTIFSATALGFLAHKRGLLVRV
Briefly: Inhibition of human recombinant MAO-B using kynuramine as substrate incubated for 20 mins measuring increase in emission signal at 400 nm multimode plate reader assay.

For assay [4], the target named is T2, Amine oxidase [flavin-containing] B. Briefly: Mixed type inhibition of human recombinant MAO-B by Lineweaver-Burk plot analysis.

As usually defined, the IC50 is the concentration that gives 50% inhibition. Broadly, the Ki is a dissociation constant, usually derived from enzyme kinetics or from competition with a known ligand.

In the case of `COc1ccc(/C=C/c2coc3ccc(OC)cc3c2=O)cc1`, the Selectivity Index in assay [1] was 233. Also, the half-inhibitory concentration (IC50) was determined as 35000 nM in assay [2] and 150 nM in assay [3].

As for `O=c1c(/C=C/c2ccc(F)cc2)coc2ccccc12`, the Selectivity Index in assay [1] came out at 72. Moreover, the concentration for half-maximal inhibition (IC50) in assay [2] was determined as 620 nM; in assay [3], 8.6 nM.

Turning to `COc1cc(/C=C/c2coc3ccccc3c2=O)cc(OC)c1OC`, the Selectivity Index in assay [1] is 291. Moreover, the 50% inhibitory concentration (IC50) in assay [2] turned out to be 67000 nM; in assay [3] it was 230 nM.

On to `COc1ccc2c(=O)c(/C=C/c3ccc(O)cc3)coc2c1`, for which the IC50 came out at 22 nM in assay [2] and 47 nM in assay [3].

For `COc1ccc2occ(/C=C/c3ccc(N(C)C)cc3)c(=O)c2c1`, in assay [1], the Selectivity Index was determined as 257. Moreover, the half-inhibitory concentration (IC50) in assay [2] worked out at 59000 nM; in assay [3] it was 230 nM.

For the compound `CN(C)c1ccc(/C=C/c2coc3ccccc3c2=O)cc1`, the Selectivity Index in assay [1] stood at 875. Moreover, the IC50 in assay [2] came out at 42000 nM; in assay [3], 48 nM.

As for `COc1ccc2occ(/C=C/c3ccccc3)c(=O)c2c1`, in assay [1], the Selectivity Index amounted to 33. Further, the values for the half-inhibitory concentration (IC50) in assay [2] and in assay [3] were 2500 nM and 75 nM, respectively.

For `COc1ccc2occ(/C=C/c3ccc(F)cc3)c(=O)c2c1`, the Selectivity Index in assay [1] was determined as 11. The concentration for half-maximal inhibition (IC50) in assay [2] was 380 nM; in assay [3], 34 nM.

Regarding `O=c1c(/C=C/c2ccc(Cl)cc2)coc2ccccc12`, the Selectivity Index in assay [1] came out at 66. For the same compound, the IC50 in assay [2] was 390 nM; in assay [3], 5.9 nM.

Turning to `COc1ccc(/C=C/c2coc3cc(OC)ccc3c2=O)cc1`, the Selectivity Index in assay [1] came out at 10. Besides, the IC50 turned out to be 69 nM in assay [2] and 6.8 nM in assay [3].

`COc1ccc2c(=O)c(/C=C/c3ccc(OC)c(OC)c3)coc2c1`: in assay [1], the Selectivity Index was 576. Also, the IC50 turned out to be 19000 nM in assay [2] and 33 nM in assay [3].

Consider `COc1ccc2c(=O)c(/C=C/c3cc(OC)c(OC)c(OC)c3)coc2c1`, for which the Selectivity Index in assay [1] is 348. Further, the IC50 came out at 7300 nM in assay [2] and 21 nM in assay [3].

Consider `COc1ccc(/C=C/c2coc3ccccc3c2=O)cc1OC`, for which the Selectivity Index in assay [1] came to 206. The half-inhibitory concentration (IC50) was found to be 33000 nM in assay [2] and 160 nM in assay [3].

Turning to `COc1ccc2c(=O)c(/C=C/c3ccc(F)cc3)coc2c1`, the IC50 was determined as 14 nM in assay [2] and 3.1 nM in assay [3].

For the compound `COc1ccc2c(=O)c(/C=C/c3ccc(Cl)cc3)coc2c1`, the Selectivity Index in assay [1] is 11. In addition, the Ki in assay [4] was 1.5 nM. Also, the IC50 in assay [2] was 25 nM; in assay [3], 2.2 nM.

On to `COc1ccc2c(=O)c(/C=C/c3ccccc3)coc2c1`, for which, in assay [1], the Selectivity Index worked out at 8. Besides, the 50% inhibitory concentration (IC50) in assay [2] was 120 nM; in assay [3], 16 nM.

On to `COc1ccc2occ(/C=C/c3ccc(O)cc3)c(=O)c2c1`, for which the results for the 50% inhibitory concentration (IC50) in assay [2] and in assay [3] were 8700 nM and 330 nM, respectively.

With `COc1ccc2occ(/C=C/c3cc(OC)c(OC)c(OC)c3)c(=O)c2c1`, in assay [1], the Selectivity Index was greater than 40. Further, the 50% inhibitory concentration (IC50) was greater than 100000 nM in assay [2] and 2500 nM in assay [3].

On to `COc1ccc2occ(/C=C/c3ccc(OC)c(OC)c3)c(=O)c2c1`, for which the Selectivity Index in assay [1] worked out at 76. Moreover, the 50% inhibitory concentration (IC50) in assay [2] amounted to 61000 nM; in assay [3] it was 800 nM.

Regarding `COc1ccc2occ(/C=C/c3ccc(Cl)cc3)c(=O)c2c1`, the Selectivity Index in assay [1] stood at 146. For the same compound, the concentration for half-maximal inhibition (IC50) was 4100 nM in assay [2] and 28 nM in assay [3].

On to `O=c1c(/C=C/c2ccccc2)coc2ccccc12`, for which, in assay [1], the Selectivity Index was greater than 3700. Also, the Ki in assay [4] was 18 nM. The IC50 is greater than 100000 nM in assay [2] and 27 nM in assay [3].

As to `O=c1c(/C=C/c2ccc(O)cc2)coc2ccccc12`, the Selectivity Index in assay [1] worked out at 70. Further, the IC50 in assay [2] is 2600 nM; in assay [3], 37 nM.

Regarding `COc1ccc(/C=C/c2coc3ccccc3c2=O)cc1`, in assay [1], the Selectivity Index was greater than 3400. Moreover, the IC50 was greater than 100000 nM in assay [2] and 29 nM in assay [3].

For the compound `COc1ccc2c(=O)c(/C=C/c3ccc(N(C)C)cc3)coc2c1`, the Selectivity Index in assay [1] worked out at 80. In addition, the half-inhibitory concentration (IC50) in assay [2] was 490 nM; in assay [3] it was 6.1 nM.

For the origin of these results see ChEMBL document CHEMBL4811301, “Synthesis and biological evaluation of 3-styrylchromone derivatives as selective monoamine oxidase B inhibitors” (Bioorg Med Chem, 2021).
